What all share (assay type): in vivo
Assay [1] has as its system Yellow Fever Mosquito (Aedes aegypti, AEDSAE). Kind of assay: Bioassay on Yellow Fever Mosquito (YFM), 96-well plate larval assay. Particulars: for YFM (Biological Results, rating): Species YFM (Yellow Fever Mosquito); for YFM rating: Yellow Fever Mosquito, 96-well plate larval assay. Put shortly: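 Aedes aegypti larvae (about 1 day old) in liver-powder water were added to plates dispensed from DMSO master plates (4000 ppm stock) diluted with 90:10 water/acetone; six replicate plates per master. Lidded plates were held at room temperature for 3 days, then each well was scored for mortality.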

Assay [2] has as its system Beet Armyworm (Spodoptera exigua, LAPHEG). Kind of assay: Bioassay on Beet Armyworm (BAW), 128-well diet tray assay. Put shortly: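 In a 128-well format, eight wells per compound received a surface dose of 50 μg/cm^2 on artificial diet. After drying, each well got one to five second instar larvae, held at 25° C. with 14:10 photoperiod. Mortality percentages after five to seven days were averaged.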

Assay [3] has as its system Cabbage Looper (Trichoplusia ni, TRIPNI). Kind of assay: Bioassay on Cabbage Looper (CL), 128-well diet tray assay. Particulars: Trichoplusia ni. Put shortly: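 Test molecule is dissolved in 90:10 acetone-water and applied at 50 μg/cm^2 onto artificial diet, then dried. One to five second-instar larvae go into each of eight wells. Trays, sealed but vented, stay at 25° C., 14:10 light-dark, five to seven days, after which mortality is averaged.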

Setting [4] is: Species BAW (Beet Armyworm), read-out: BAW (Biological Results, rating).
[5] abbreviates: Species CL (Cabbage Looper), read-out: CL (Biological Results, rating).
Where [6] appears, read: Beet Armyworm, 128-well diet tray assay, read-out: BAW rating.
Where [7] appears, read: Cabbage Looper, 128-well diet tray assay, read-out: CL rating.

Like-named read-outs stand apart in the source and are kept apart here.

`C=Cc1cc([C@H]2[C@H](C(=O)Nc3ccc(Cl)c(C(=O)Nc4ccc(F)cc4)c3)C2(Cl)Cl)ccc1Cl` (relative stereo) [F349, 2-Chloro-5-(trans-2,2-dichloro-3-(4-chloro-3-vinylphenyl)cyclopropane-1-carboxamido)-N-(4-fluorophenyl)benzamide]: the “YFM (Biological Results, rating)” value in assay [1] is given as “A (80-100)”. The pest or weed control at 50 µg/cm2 in assay [2] (setting [4]) and in assay [3] (setting [5]) was 50 to 100% each time.

Take `Cc1cc(NC(=O)OC(C)(C)C)ccc1NC(=O)c1cc(NC(=O)[C@H]2[C@H](c3ccc(Br)c(Cl)c3)C2(Cl)Cl)ccc1Cl` (relative stereo) [F322, tert-Butyl (4-(5-(trans-3-(4-bromo-3-chlorophenyl)-2,2-dichlorocyclopropane-1-carboxamido)-2-chlorobenzamido)-3-methylphenyl)carbamate]: the “YFM (Biological Results, rating)” value in assay [1] is on record as “A (80-100)”. In addition, the pest or weed control at 50 µg/cm2 in assay [2] (setting [4]) and in assay [3] (setting [5]) was 50 to 100% throughout.

On to `O=C(Nc1ccc(F)cc1)c1cc(NC(=O)[C@H]2[C@H](c3cc(Cl)cc(Cl)c3)C2(Cl)Cl)ccc1C(F)(F)F` (relative stereo) [F3, trans-5-(2,2-Dichloro-3-(3,5-dichlorophenyl)cyclopropane-1-carboxamido)-N-(4-fluorophenyl)-2-(trifluoromethyl)benzamide], for which the “YFM (Biological Results, rating)” value in assay [1] is reported as “A (80-100)”. For the same compound, the pest or weed control at 50 µg/cm2 in assay [2] (setting [4]) and in assay [3] (setting [5]) was 50 to 100% in each case.

Consider `Cc1ccc(C#N)c(NC(=O)c2cc(NC(=O)[C@H]3[C@H](c4cc(Cl)cc(Cl)c4)C3(Cl)Cl)ccc2Cl)c1` (relative stereo) [F230, 2-Chloro-N-(2-cyano-5-methylphenyl)-5-(trans-2,2-dichloro-3-(3,5-dichlorophenyl)cyclopropane-1-carboxamido)benzamide], for which the “YFM (Biological Results, rating)” value in assay [1] is “A (80-100)”. In addition, the pest or weed control at 50 µg/cm2 in assay [2] (setting [4]) and in assay [3] (setting [5]) was 50 to 100% in each case.

For `Cc1cc(F)ccc1N(C)C(=O)c1cc(NC(=O)[C@H]2[C@H](c3cc(Cl)cc(Cl)c3)C2(Cl)Cl)ccc1Cl` (relative stereo) [PF49, trans-2-Chloro-5-(2,2-dichloro-3-(3,5-dichlorophenyl)cyclopropane-1-carboxamido)-N-(4-fluoro-2-methylphenyl)-N-methylbenzamide], the YFM rating result in assay [1] is reported as “B (More than 0-Less than 80)”. Besides, the pest or weed control at 50 µg/cm2 in assay [2] (setting [6]) and in assay [3] (setting [7]) was 50 to 100% throughout.

`Nc1c(F)cc(NC(=O)c2cc(NC(=O)[C@H]3[C@H](c4cc(Cl)c(Cl)c(Cl)c4)C3(Cl)Cl)ccc2Cl)cc1F` [F380, N-(4-Amino-3,5-difluorophenyl)-2-chloro-5-((1R,3R)-2,2-dichloro-3-(3,4,5-trichlorophenyl)cyclopropane-1-carboxamido)benzamide]: the YFM rating result in assay [1] is on record as “A (80-100)”. For the same compound, the pest or weed control at 50 µg/cm2 in assay [2] (setting [6]) and in assay [3] (setting [7]) was 50 to 100% in each case.

For the compound `O=C(Nc1ccc(S(=O)(=O)C(F)(F)F)cc1)c1cc(NC(=O)[C@H]2[C@H](c3cc(Cl)cc(Cl)c3)C2(Cl)Cl)ccc1Cl` (relative stereo) [PF19, trans-2-Chloro-5-(2,2-dichloro-3-(3,5-dichlorophenyl)cyclopropane-1-carboxamido)-N-(4-((trifluoromethyl)sulfonyl)phenyl)benzamide], the YFM rating entry in assay [1] is “A (80-100)”. Besides, the pest or weed control at 50 µg/cm2 in assay [2] (setting [6]) and in assay [3] (setting [7]) was 50 to 100% in each case.

Turning to `O=C(Nc1cc(F)cc([N+](=O)[O-])c1)c1cc(NC(=O)[C@H]2[C@H](c3cc(Cl)c(Cl)c(Cl)c3)C2(Cl)Cl)ccc1Cl` [F417, 2-Chloro-5-((1R,3R)-2,2-dichloro-3-(3,4,5-trichlorophenyl)cyclopropane-1-carboxamido)-N-(3-fluoro-5-nitrophenyl)benzamide], the YFM rating entry in assay [1] is listed as “A (80-100)”. Also, the pest or weed control at 50 µg/cm2 in assay [2] (setting [6]) and in assay [3] (setting [7]) was 50 to 100% in each case.

Regarding `O=C(Nc1ccc(F)cc1Cl)c1cccc(NC(=O)[C@H]2[C@H](c3cc(Cl)cc(Cl)c3)C2(Cl)Cl)c1` (relative stereo) [F274, trans-N-(2-Chloro-4-fluorophenyl)-3-(2,2-dichloro-3-(3,5-dichlorophenyl)cyclopropane-1-carboxamido)benzamide], the “YFM (Biological Results, rating)” value in assay [1] is reported as “A (80-100)”. Moreover, the pest or weed control at 50 µg/cm2 in assay [2] (setting [4]) and in assay [3] (setting [5]) was 50 to 100% in each case.

For `Cc1cc(NC(=O)OC(C)(C)C)ccc1NC(=O)c1cc(NC(=O)[C@H]2[C@H](c3cc(Cl)cc(Cl)c3)C2(Cl)Cl)ccc1Cl` [F275, tert-Butyl (4-(2-chloro-5-((1R,3R)-2,2-dichloro-3-(3,5-dichlorophenyl)cyclopropane-1-carboxamido)benzamido)-3-methylphenyl)carbamate], the “YFM (Biological Results, rating)” value in assay [1] is reported as “A (80-100)”. For the same compound, the pest or weed control at 50 µg/cm2 in assay [2] (setting [4]) and in assay [3] (setting [5]) was 50 to 100% in each case.

Regarding `COc1cc(NC(=O)c2cc(NC(=O)C3C(c4cc(Cl)cc(Cl)c4)C3(Cl)Cl)ccc2Cl)ccc1Cl` (stereo not drawn) [PF114, 2-Chloro-N-(4-chloro-3-methoxyphenyl)-5-(trans)-2,2-dichloro-3-(3,5-dichlorophenyl)cyclopropane-1-carboxamido)benzamide], the YFM rating result in assay [1] was “A (80-100)”. Moreover, the pest or weed control at 50 µg/cm2 in assay [2] (setting [6]) and in assay [3] (setting [7]) was 50 to 100% in each case.

Turning to `O=C(Nc1ccc2[nH]c(-c3ccccc3)cc2c1)c1cc(NC(=O)[C@H]2[C@H](c3cc(Cl)cc(Cl)c3)C2(Cl)Cl)ccc1Cl` (relative stereo) [F497, 2-Chloro-5-(trans)-(2,2-dichloro-3-(3,5-dichlorophenyl)cyclopropane-1-carboxamido)-N-(2-phenyl-1H-indol-5-yl)benzamide], the YFM rating result in assay [1] was “A (80-100)”. Moreover, the pest or weed control at 50 µg/cm2 in assay [2] (setting [6]) and in assay [3] (setting [7]) was 50 to 100% throughout.

Take `N#Cc1cc(Cl)cc([C@H]2[C@H](C(=O)Nc3ccc(Cl)c(C(=O)Nc4ccc(F)c(N)c4F)c3)C2(Cl)Cl)c1` (relative stereo) [F344, trans-N-(3-Amino-2,4-difluorophenyl)-2-chloro-5-(2,2-dichloro-3-(3-chloro-5-cyanophenyl)cyclopropane-1-carboxamido)benzamide]: in assay [1], the “YFM (Biological Results, rating)” value is on record as “A (80-100)”. Besides, the pest or weed control at 50 µg/cm2 in assay [2] (setting [4]) and in assay [3] (setting [5]) was 50 to 100% throughout.

For `CNc1ccc(NC(=O)c2cc(NC(=O)[C@H]3[C@H](c4ccc(F)c(Cl)c4)C3(Cl)Cl)ccc2Cl)cc1` (relative stereo) [F261, trans-2-Chloro-5-(2,2-dichloro-3-(3-chloro-4-fluorophenyl)cyclopropane-1-carboxamido)-N-(4-(methylamino)phenyl)benzamide], in assay [1], the “YFM (Biological Results, rating)” value was “A (80-100)”. Further, the pest or weed control at 50 µg/cm2 in assay [2] (setting [4]) and in assay [3] (setting [5]) was 50 to 100% in each case.

Turning to `Cc1cc(NC(=O)c2cc(NC(=O)[C@H]3[C@H](c4cc(Cl)cc(Cl)c4)C3(Cl)Cl)ccc2Cl)ncc1F` (relative stereo) [F297, trans-2-Chloro-5-(2,2-dichloro-3-(3,5-dichlorophenyl)cyclopropane-1-carboxamido)-N-(5-fluoro-4-methylpyridin-2-yl)benzamide], the “YFM (Biological Results, rating)” value in assay [1] is recorded as “A (80-100)”. The pest or weed control at 50 µg/cm2 in assay [2] (setting [4]) and in assay [3] (setting [5]) was 50 to 100% in each case.

In the case of `N#Cc1cc(F)ccc1NC(=O)c1cc(NC(=O)[C@H]2[C@H](c3ccc(Br)c(Cl)c3)C2(Cl)Cl)ccc1Cl` (relative stereo) [F320, 5-(trans-3-(4-Bromo-3-chlorophenyl)-2,2-dichlorocyclopropane-1-carboxamido)-2-chloro-N-(2-cyano-4-fluorophenyl)benzamide], the “YFM (Biological Results, rating)” value in assay [1] is listed as “A (80-100)”. The pest or weed control at 50 µg/cm2 in assay [2] (setting [4]) and in assay [3] (setting [5]) was 50 to 100% each time.

With `Cc1c(NC(=O)c2cc(NC(=O)[C@H]3[C@H](c4cc(Cl)cc(Cl)c4)C3(Cl)Cl)ccc2Cl)ccc2[nH]ccc12` (relative stereo) [F485, 2-Chloro-5-(trans)-(2,2-dichloro-3-(3,5-dichlorophenyl)cyclopropane-1-carboxamido)-N-(4-methyl-1H-indol-5-yl)benzamide], in assay [1], the YFM rating result was “A (80-100)”. The pest or weed control at 50 µg/cm2 in assay [2] (setting [6]) and in assay [3] (setting [7]) was 50 to 100% each time.

With `Nc1cccc(NC(=O)c2cc(NC(=O)[C@H]3[C@H](c4ccc(F)c(Cl)c4)C3(Cl)Cl)ccc2Cl)n1` (relative stereo) [F327, N-(6-Aminopyridin-2-yl)-2-chloro-5-(trans-2,2-dichloro-3-(3-chloro-4-fluorophenyl)cyclopropane-1-carboxamido)benzamide], the “YFM (Biological Results, rating)” value in assay [1] is “A (80-100)”. Besides, the pest or weed control at 50 µg/cm2 in assay [2] (setting [4]) and in assay [3] (setting [5]) was 50 to 100% in each case.

Regarding `O=C(Nc1c(F)cccc1F)c1cc(NC(=O)[C@H]2[C@H](c3ccc(F)c(Cl)c3)C2(Cl)Cl)ccc1Cl` (relative stereo) [F161, trans-2-Chloro-5-(2,2-dichloro-3-(3-chloro-4-fluorophenyl)cyclopropane-1-carboxamido)-N-(2,6-difluorophenyl)benzamide], the “YFM (Biological Results, rating)” value in assay [1] is “A (80-100)”. In addition, the pest or weed control at 50 µg/cm2 in assay [2] (setting [4]) and in assay [3] (setting [5]) was 50 to 100% throughout.

The values above are taken from patent US10219516B2, “Molecules having pesticidal utility, and intermediates, compositions, and processes, related thereto” (priority 2015, dated 2019).
